According to patent US9562085B2, “Antimicrobial peptide” (priority 2013, dated 2017):
Non-standard residues stand in square brackets, D forms with d. Residues, ends and D or L forms follow the SMILES beside them.

tested on: S. aureus JAR; assay type: cell-based; settings: JAR, 2 h
Protocol: S. aureus JAR is described in Campoccia et al. (Int. J. Artif. Organs, 2008 September; 31(9):841-7).
For the in vitro killing assay with P10 variants, S. aureus JAR ([…] CFU/ml) were incubated for 2 hours at 37° C. with various concentrations of the peptides in PBS or in PBS/human plasma (1/1, v/v). […] The LC99.9 is the average value of two independent experiments.

Compound | LC99.9 (μM) (50% plasma) | LC99.9 (μM) (PBS)
CC[C@H](C)[C@H](NC(=O)[C@H](CCCCN)NC(=O)[C@H](CCCCN)NC(=O)[C@H](Cc1ccc(O)cc1)NC(=O)[C@H](CCC(=O)O)NC(=O)[C@H](CCCNC(=N)N)NC(=O)[C@H](C)NC(=O)[C@H](CC(C)C)NC(C)=O)C(=O)N[C@H](C(=O)N[C@H](CCC(=O)O)C(=O)N[C@@H](CCCCN)C(=O)N[C@@H](CC(C)C)C(=O)N[C@@H](CCCCN)C(=O)N[C@@H](CCCNC(=N)N)C(=O)N[C@@H](Cc1c[nH]c2ccccc12)C(=O)N[C@@H](CC(C)C)C(=O)N[C@@H](CCCNC(=N)N)C(=O)N[C@@H](CCC(N)=O)C(=O)N[C@H](C(=O)N[C@@H](CC(C)C)C(=O)N[C@@H](CCCNC(=N)N)C(=O)N[C@H](C(=O)N[C@@H](CC(C)C)C(=O)N[C@@H](CCCNC(=N)N)C(N)=O)[C@@H](C)O)C(C)C)C(C)C [Peptide 1301-10, JLAREYKKIVeKLKRWLRQVLRTLRB] (Ac-LAREYKKIV[dE]KLKRWLRQVLRTLR-NH2) | 38.4 µM | 0.6 µM
CC[C@H](C)[C@H](NC(=O)[C@H](CCCCN)NC(=O)[C@H](CCCCN)NC(=O)[C@H](Cc1ccc(O)cc1)NC(=O)[C@H](CCC(=O)O)NC(=O)[C@H](CCCNC(=N)N)NC(=O)[C@H](C)NC(=O)[C@H](CC(C)C)NC(C)=O)C(=O)N[C@H](C(=O)N[C@@H](CCC(=O)O)C(=O)N[C@H](CCCCN)C(=O)N[C@@H](CC(C)C)C(=O)N[C@@H](CCCCN)C(=O)N[C@@H](CCCNC(=N)N)C(=O)N[C@@H](Cc1c[nH]c2ccccc12)C(=O)N[C@@H](CC(C)C)C(=O)N[C@@H](CCCNC(=N)N)C(=O)N[C@@H](CCC(N)=O)C(=O)N[C@H](C(=O)N[C@@H](CC(C)C)C(=O)N[C@@H](CCCNC(=N)N)C(=O)N[C@H](C(=O)N[C@@H](CC(C)C)C(=O)N[C@@H](CCCNC(=N)N)C(N)=O)[C@@H](C)O)C(C)C)C(C)C [Peptide 1301-11, JLAREYKKIVEkLKRWLRQVLRTLRB] (Ac-LAREYKKIVE[dK]LKRWLRQVLRTLR-NH2) | 19.2 µM | 0.4 µM
CC[C@H](C)[C@H](NC(=O)[C@H](CCCCN)NC(=O)[C@H](CCCCN)NC(=O)[C@H](Cc1ccc(O)cc1)NC(=O)[C@H](CCC(=O)O)NC(=O)[C@H](CCCNC(=N)N)NC(=O)[C@H](C)NC(=O)[C@H](CC(C)C)NC(C)=O)C(=O)N[C@H](C(=O)N[C@@H](CCC(=O)O)C(=O)N[C@@H](CCCCN)C(=O)N[C@H](CC(C)C)C(=O)N[C@@H](CCCCN)C(=O)N[C@@H](CCCNC(=N)N)C(=O)N[C@@H](Cc1c[nH]c2ccccc12)C(=O)N[C@@H](CC(C)C)C(=O)N[C@@H](CCCNC(=N)N)C(=O)N[C@@H](CCC(N)=O)C(=O)N[C@H](C(=O)N[C@@H](CC(C)C)C(=O)N[C@@H](CCCNC(=N)N)C(=O)N[C@H](C(=O)N[C@@H](CC(C)C)C(=O)N[C@@H](CCCNC(=N)N)C(N)=O)[C@@H](C)O)C(C)C)C(C)C [Peptide 1301-12, JLAREYKKIVEKlKRWLRQVLRTLRB] (Ac-LAREYKKIVEK[dL]KRWLRQVLRTLR-NH2) | 32.0 µM | 0.6 µM
CC[C@H](C)[C@H](NC(=O)[C@H](CCCCN)NC(=O)[C@H](CCCCN)NC(=O)[C@H](Cc1ccc(O)cc1)NC(=O)[C@H](CCC(=O)O)NC(=O)[C@H](CCCNC(=N)N)NC(=O)[C@H](C)NC(=O)[C@H](CC(C)C)NC(C)=O)C(=O)N[C@H](C(=O)N[C@@H](CCC(=O)O)C(=O)N[C@@H](CCCCN)C(=O)N[C@@H](CC(C)C)C(=O)N[C@H](CCCCN)C(=O)N[C@@H](CCCNC(=N)N)C(=O)N[C@@H](Cc1c[nH]c2ccccc12)C(=O)N[C@@H](CC(C)C)C(=O)N[C@@H](CCCNC(=N)N)C(=O)N[C@@H](CCC(N)=O)C(=O)N[C@H](C(=O)N[C@@H](CC(C)C)C(=O)N[C@@H](CCCNC(=N)N)C(=O)N[C@H](C(=O)N[C@@H](CC(C)C)C(=O)N[C@@H](CCCNC(=N)N)C(N)=O)[C@@H](C)O)C(C)C)C(C)C [Peptide 1301-13, JLAREYKKIVEKLkRWLRQVLRTLRB] (Ac-LAREYKKIVEKL[dK]RWLRQVLRTLR-NH2) | 38.4 µM | 0.6 µM
CC[C@H](C)[C@H](NC(=O)[C@H](CCCCN)NC(=O)[C@H](CCCCN)NC(=O)[C@H](Cc1ccc(O)cc1)NC(=O)[C@H](CCC(=O)O)NC(=O)[C@H](CCCNC(=N)N)NC(=O)[C@H](C)NC(=O)[C@H](CC(C)C)NC(C)=O)C(=O)N[C@H](C(=O)N[C@@H](CCC(=O)O)C(=O)N[C@@H](CCCCN)C(=O)N[C@@H](CC(C)C)C(=O)N[C@@H](CCCCN)C(=O)N[C@H](CCCNC(=N)N)C(=O)N[C@@H](Cc1c[nH]c2ccccc12)C(=O)N[C@@H](CC(C)C)C(=O)N[C@@H](CCCNC(=N)N)C(=O)N[C@@H](CCC(N)=O)C(=O)N[C@H](C(=O)N[C@@H](CC(C)C)C(=O)N[C@@H](CCCNC(=N)N)C(=O)N[C@H](C(=O)N[C@@H](CC(C)C)C(=O)N[C@@H](CCCNC(=N)N)C(N)=O)[C@@H](C)O)C(C)C)C(C)C [Peptide 1301-14, JLAREYKKIVEKLKrWLRQVLRTLRB] (Ac-LAREYKKIVEKLK[dR]WLRQVLRTLR-NH2) | 38.4 µM | 0.6 µM
